These results are taken from ChEMBL document CHEMBL1152009, “Synthesis and biological activity of some 3-acryloxymethyl cephalosporins” (Bioorg Med Chem Lett, 1995).

Data set [1] has as its system Streptococcus pneumoniae. As to the kind of experiment: In vitro antibacterial activity against Streptococcus pneumoniae 1716. The data set is classed as functional.
For data set [2], the system named is Staphylococcus aureus. As to the kind of experiment: In vitro antibacterial activity against Staphylococcus aureus MB9. The data set is classed as functional.
Data set [3] concerns Escherichia coli. As to the kind of experiment: In vitro antibacterial activity against Escherichia coli ESS. The class given is functional.
The test system of data set [4] is Staphylococcus aureus. As to the kind of experiment: In vitro antibacterial activity against Staphylococcus aureus Russell (resistance due to beta-lactamase). The class given is functional.
Data set [5] has as its system Haemophilus influenzae. As to the kind of experiment: In vitro antibacterial activity against Haemophilus influenzae Q1. The data set is classed as functional.
The test system of the next data set is Moraxella catarrhalis. As to the kind of experiment: In vitro antibacterial activity against Branhamella catarrhalis Ravasio (resistance due to beta-lactamase). The data set is classed as functional.
The test system of data set [6] is Streptococcus pneumoniae. As to the kind of experiment: In vitro antibacterial activity against Streptococcus pneumoniae PU7 (resistance due to modified target enzyme. The class given is functional.
A further data set concerns Proteus mirabilis. As to the kind of experiment: In vitro antibacterial activity against Proteus mirabilis C977. The data set is classed as functional.
The subject of the next data set is Streptococcus agalactiae. As to the kind of experiment: In vitro antibacterial activity against Streptococcus agalactiae 2798. The class given is functional.
Data set [7] has as its system Pseudomonas aeruginosa. As to the kind of experiment: In vitro antibacterial activity against Pseudomonas aeruginosa 10662. The class given is functional.
For data set [8], the system named is Escherichia coli. As to the kind of experiment: In vitro antibacterial activity against Escherichia coli JT425 (resistance due to beta-lactamase). The data set is classed as functional.
The test system of data set [9] is Escherichia coli. As to the kind of experiment: In vitro antibacterial activity against Escherichia coli 1077 (resistance due to beta-lactamase). The class given is functional.
A further data set concerns Streptococcus pyogenes. As to the kind of experiment: In vitro antibacterial activity against Streptococcus pyogenes CN10. The class given is functional.
In data set [10] the test system is Enterococcus faecalis. As to the kind of experiment: In vitro antibacterial activity against Streptococcus faecalis I. The data set is classed as functional.
Data set [11] has as its system Escherichia coli. As to the kind of experiment: In vitro antibacterial activity against Escherichia coli 10418. The data set is classed as functional.
In a further data set the test system is Morganella morganii. As to the kind of experiment: In vitro antibacterial activity against Morganella morganii T361. The data set is classed as functional.
In data set [12] the test system is Staphylococcus aureus. As to the kind of experiment: In vitro antibacterial activity against Staphylococcus aureus V573 (resistance due to modified target enzyme). The class given is functional.
The subject of data set [13] is Staphylococcus epidermidis. As to the kind of experiment: In vitro antibacterial activity against Staphylococcus epidermidis PHLN20. The data set is classed as functional.
Data set [14] concerns Staphylococcus aureus. As to the kind of experiment: In vitro antibacterial activity against Staphylococcus aureus Oxford. The data set is classed as functional.
A further data set has as its system Klebsiella pneumoniae. As to the kind of experiment: In vitro antibacterial activity against Klebsiella pneumoniae T767. The class given is functional.
Data set [15] relates to Haemophilus influenzae. As to the kind of experiment: In vitro antibacterial activity against Haemophilus influenzae NEMC (resistance due to beta-lactamase). The class given is functional.
For data set [16], the system named is Enterococcus faecalis. As to the kind of experiment: In vitro antibacterial activity against S. faecalis I. The class given is functional.
A short description of data set [17]: Half-life in a rat liver homogenate preparation. The data set is classed as ADME.
Data set [18] has as its system Streptococcus pneumoniae. As to the kind of experiment: In vitro antibacterial activity against Streptococcus pneumoniae PU7 (resistance due to modified target enzyme). The data set is classed as functional.
Data set [19] deals with Staphylococcus aureus. As to the kind of experiment: In vitro antibacterial activity against Staphylococcus aureus Russell (resistance due to beta-lactamase. The data set is classed as functional.
Data set [20] concerns Pseudomonas aeruginosa. As to the kind of experiment: In vitro antibacterial activity was determined against Pseudomonas aeruginosa 10662. The class given is functional.
For data set [21], the system named is Staphylococcus aureus. As to the kind of experiment: In vitro antibacterial activity against S. aureus MB9. The data set is classed as functional.

Values after ≈ are worked out from the molar mass of the structure shown.

With `C/C=C(\C)C(=O)OCC1=C(C(=O)O)N2C(=O)[C@@H](NC(=O)/C(=N\O)c3cnc(N)s3)[C@H]2SC1`, the MIC is no more than 0.03 µg/mL against Streptococcus pneumoniae [1]; 0.5 µg/mL (≈ 1.04 µM) in the data set on Staphylococcus aureus [2]; no more than 0.03 µg/mL with Escherichia coli [3]; 0.5 µg/mL (≈ 1.04 µM) in the data set with Staphylococcus aureus [4]; no more than 0.03 µg/mL against Haemophilus influenzae [5]; 4 µg/mL (≈ 8.31 µM) in the data set with Moraxella catarrhalis. Moreover, the MIC was 0.5 µg/mL (≈ 1.04 µM) against Streptococcus pneumoniae [6]; 0.25 µg/mL (≈ 0.519 µM) against Proteus mirabilis; no more than 0.03 µg/mL with Streptococcus agalactiae; greater than 64 µg/mL in the data set on Pseudomonas aeruginosa [7]; 0.5 µg/mL (≈ 1.04 µM) against Escherichia coli [8]; 0.25 µg/mL (≈ 0.519 µM) against Escherichia coli [9]. Further, the MIC was no more than 0.03 µg/mL in the data set with Streptococcus pyogenes; greater than 64 µg/mL in the data set with Enterococcus faecalis [10]; 0.12 µg/mL (≈ 0.249 µM) against Escherichia coli [11]; 0.12 µg/mL (≈ 0.249 µM) in the data set on Morganella morganii; 8 µg/mL (≈ 16.6 µM) in the data set with Staphylococcus aureus [12]; 0.25 µg/mL (≈ 0.519 µM) in data set [13]. The MIC stood at 0.25 µg/mL (≈ 0.519 µM) against Staphylococcus aureus [14] and 0.5 µg/mL (≈ 1.04 µM) against Klebsiella pneumoniae.

One may read the half-life as the time in which the quantity being followed falls by half. A low value points to rapid decline. `CC(=O)OCC1=C(C(=O)O)N2C(=O)[C@@H](NC(=O)/C(=N\O)c3cnc(N)s3)[C@H]2SC1`: the MIC in the data set on Streptococcus pneumoniae [1] is 0.06 µg/mL (≈ 0.136 µM); in the data set on Staphylococcus aureus [2], 0.5 µg/mL (≈ 1.13 µM); in the data set with Haemophilus influenzae [15], 0.06 µg/mL (≈ 0.136 µM); against Enterococcus faecalis [16], 4 µg/mL (≈ 9.06 µM); in the data set on Escherichia coli [3], less than 0.03 µg/mL; against Staphylococcus aureus [4], 0.5 µg/mL (≈ 1.13 µM). Further, the MIC was 0.12 µg/mL (≈ 0.272 µM) against Haemophilus influenzae [5]; 2 µg/mL (≈ 4.53 µM) with Moraxella catarrhalis; 2 µg/mL (≈ 4.53 µM) in the data set on Streptococcus pneumoniae [6]; 0.06 µg/mL (≈ 0.136 µM) with Proteus mirabilis; 0.06 µg/mL (≈ 0.136 µM) against Streptococcus agalactiae; greater than 32 µg/mL in the data set with Pseudomonas aeruginosa [7]. Besides, the MIC is 1 µg/mL (≈ 2.27 µM) with Escherichia coli [8]; 0.06 µg/mL (≈ 0.136 µM) against Escherichia coli [9]; 0.06 µg/mL (≈ 0.136 µM) against Escherichia coli [11]; 0.06 µg/mL (≈ 0.136 µM) with Morganella morganii; greater than 32 µg/mL against Staphylococcus aureus [12]; 0.25 µg/mL (≈ 0.566 µM) in [13]. Moreover, the figures for the MIC with Staphylococcus aureus [14] and against Klebsiella pneumoniae were 0.25 µg/mL (≈ 0.566 µM) and 0.06 µg/mL (≈ 0.136 µM), respectively. In data set [17], the half-life is no more than 15 min.

Turning to `CC(C)=CC(=O)OCC1=C(C(=O)O)N2C(=O)[C@@H](NC(=O)/C(=N\O)c3cnc(N)s3)[C@H]2SC1`, the MIC in the data set on Streptococcus pneumoniae [1] was less than 0.03 µg/mL; in the data set with Staphylococcus aureus [2] it was 0.5 µg/mL (≈ 1.04 µM); against Haemophilus influenzae [15], less than 0.03 µg/mL; in the data set with Escherichia coli [3] it was less than 0.03 µg/mL; against Haemophilus influenzae [5] it was 0.06 µg/mL (≈ 0.125 µM); against Moraxella catarrhalis it was 4 µg/mL (≈ 8.31 µM). Moreover, the MIC is 0.25 µg/mL (≈ 0.519 µM) with Proteus mirabilis; 0.5 µg/mL (≈ 1.04 µM) with Streptococcus pneumoniae [18]; less than 0.03 µg/mL against Streptococcus agalactiae; 0.5 µg/mL (≈ 1.04 µM) in the data set with Escherichia coli [8]; 0.25 µg/mL (≈ 0.519 µM) against Escherichia coli [9]; 0.5 µg/mL (≈ 1.04 µM) against Staphylococcus aureus [19]. In addition, the MIC was less than 0.03 µg/mL in the data set with Streptococcus pyogenes; 8 µg/mL (≈ 16.6 µM) in the data set with Enterococcus faecalis [10]; 0.06 µg/mL (≈ 0.125 µM) in the data set on Escherichia coli [11]; 0.25 µg/mL (≈ 0.519 µM) against Morganella morganii; 8 µg/mL (≈ 16.6 µM) in the data set on Staphylococcus aureus [12]; 0.25 µg/mL (≈ 0.519 µM) in [13]. Further, the MIC is 0.25 µg/mL (≈ 0.519 µM) with Staphylococcus aureus [14], 0.5 µg/mL (≈ 1.04 µM) in the data set with Klebsiella pneumoniae and greater than 64 µg/mL against Pseudomonas aeruginosa [20].

Consider `C=C(C)C(=O)OCC1=C(C(=O)O)N2C(=O)[C@@H](NC(=O)/C(=N\O)c3cnc(N)s3)[C@H]2SC1`, for which the MIC in the data set on Streptococcus pneumoniae [1] was less than 0.03 µg/mL; in the data set on Staphylococcus aureus [21], 0.25 µg/mL (≈ 0.535 µM); against Escherichia coli [3], less than 0.03 µg/mL; in the data set with Staphylococcus aureus [4] it was 0.25 µg/mL (≈ 0.535 µM); in the data set on Haemophilus influenzae [5] it was less than 0.03 µg/mL; in the data set with Moraxella catarrhalis, 0.5 µg/mL (≈ 1.07 µM). The MIC was 1 µg/mL (≈ 2.14 µM) against Streptococcus pneumoniae [6]; 0.06 µg/mL (≈ 0.128 µM) against Proteus mirabilis; less than 0.03 µg/mL against Streptococcus agalactiae; 64 µg/mL (≈ 137 µM) against Pseudomonas aeruginosa [7]; 0.12 µg/mL (≈ 0.257 µM) against Escherichia coli [8]; 0.06 µg/mL (≈ 0.128 µM) against Escherichia coli [9]. In addition, the MIC against Streptococcus pyogenes is less than 0.03 µg/mL; with Enterococcus faecalis [10], 32 µg/mL (≈ 68.5 µM); with Escherichia coli [11], less than 0.03 µg/mL; with Morganella morganii it was 0.06 µg/mL (≈ 0.128 µM); with Staphylococcus aureus [12] it was 2 µg/mL (≈ 4.28 µM); in data set [13] it was 0.06 µg/mL (≈ 0.128 µM). The MIC in the data set on Staphylococcus aureus [14] turned out to be 0.06 µg/mL (≈ 0.128 µM); with Klebsiella pneumoniae, 0.12 µg/mL (≈ 0.257 µM).

Consider `CO/N=C(\C(=O)N[C@@H]1C(=O)N2C(C(=O)O)=C(COC(C)=O)CS[C@H]12)c1csc(N)n1` [CEFOTAXIME], for which the MIC against Streptococcus pneumoniae [1] is less than 0.03 µg/mL; in the data set with Staphylococcus aureus [2], 4 µg/mL (≈ 8.78 µM); against Enterococcus faecalis [16], greater than 64 µg/mL; with Escherichia coli [3], less than 0.03 µg/mL; in the data set on Staphylococcus aureus [4], 2 µg/mL (≈ 4.39 µM); against Haemophilus influenzae [5], less than 0.03 µg/mL. Moreover, the MIC with Moraxella catarrhalis is 0.25 µg/mL (≈ 0.549 µM); with Streptococcus pneumoniae [6], 2 µg/mL (≈ 4.39 µM); in the data set with Proteus mirabilis it was less than 0.03 µg/mL; against Streptococcus agalactiae, 0.12 µg/mL (≈ 0.263 µM); in the data set on Pseudomonas aeruginosa [7], 16 µg/mL (≈ 35.1 µM); against Escherichia coli [8] it was 0.5 µg/mL (≈ 1.1 µM). Moreover, the MIC with Streptococcus pyogenes is less than 0.03 µg/mL; against Escherichia coli [11], less than 0.03 µg/mL; with Morganella morganii, 2 µg/mL (≈ 4.39 µM); in the data set on Staphylococcus aureus [12], 32 µg/mL (≈ 70.3 µM); in [13], 1 µg/mL (≈ 2.2 µM); in the data set with Staphylococcus aureus [14] it was 2 µg/mL (≈ 4.39 µM). Further, the MIC with Klebsiella pneumoniae stood at 0.06 µg/mL (≈ 0.132 µM). The molecule further showed a half-life in data set [17] of no more than 15 min.
